Usually MIC stands for the smallest concentration in the dilution series that meets the test's criterion for growth inhibition.

Values after ≈ are worked out from the molar mass of the structure shown. Where two headings read alike, the source gives them in different places. Ends that are not written are not given here. Peptide text beside a SMILES is read from it.

Our source for the MIC and M. furfur killed values is patent US20100184683A1, “ANTIBACTERIAL AND ANTIFUNGAL PEPTIDES” (C3 JIAN, INC., priority 2009, published 2010).

For one test, the system named is E. coli. The test is classed as cell-based, Escherichia coli. How it is done: (§1) In certain embodiments the MIC assays are performed as described herein in the Examples. For each organism, the media and growth conditions utilized is detailed in Table 8.
(§2) In certain embodiments the MIC assays are performed as follows: For each organism, the media and growth conditions utilized is detailed in Table 8.

The test system of another test is S. pneumoniae. The test is classed as cell-based, Streptococcus pneumoniae. Here is the method:
as §1, §2

In another test the test system is S. epidermidis. The test is classed as cell-based. The essentials:
(§3)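 Organism-specific media and growth conditions are used for MIC testing of every strain.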

The next test relates to S. mutans. The class given is cell-based, Streptococcus mutans. Here is the method:
as §1, §2

The subject of another test is MRSA. The test is classed as cell-based, Methicillin-resistant Staphylococcus aureus. The essentials:
as §3

Another test relates to P. gingivalis. The test is classed as cell-based, Porphyromonas gingivalis. How it is done: as §1, §2
The next test has as its system F. nucleatum. The class given is cell-based, Fusobacterium nucleatum. How it is done: as §1, §2
The next test relates to A. naeslundii. The class given is cell-based, Actinomyces naeslundii. How it is done:
as §1, §2

The test system of the next test is P. aeruginosa. The class given is cell-based, Pseudomonas aeruginosa. Here is the method:
as §1, §2

Another test concerns T. rubrum. The class given is cell-based, Trichophyton rubrum. The gist of the method: as §3
A further test deals with C. albicans. The class given is cell-based, Candida albicans. Here is the method: as §1, §2
In another test the test system is M. furfur ATCC 14521. The following applies: 5 μM peptide, after 15 min of treatment, 10^6 cells/ml, ATCC medium 1072, 30° C. How it is done:
FIG. 1. Killing kinetics of PF-S028 L and D versions against M. furfur were determined using standard time-kill methods previously detailed (Eckert et al. (2006) Antimicrob Agents Chemother., 50: 1480-1488). Briefly, a log phase culture of M. furfur ATCC 14521 was diluted to 10^6 cells/ml in ATCC medium 1072. To the reaction tubes 5 μM of either PF-S028 L or PF-S028 D were added. A reaction tube to which 4 μl of 50% methanol served as the negative control. Reaction tubes were stored at 30° C. and at indicated intervals an aliquot was removed from the reaction tube and placed in a recovery tube where peptide was removed by dilution. An aliquot from the recovery tube was plated on ATCC medium 1072 agar plates and incubated at 30° C. until visible colonies formed. Colony forming units were calculated for the negative control (no peptide), PF-S028 L, and PF-S028 D treated cultures.
In some cases killing kinetic experiments were then conducted. Killing kinetics of PF-S028 L and D versions against M. furfur were determined as described in Eckert et al. (2006) Antimicrob Agents Chemother., 50: 1480-1488. Briefly, a log phase culture of M. furfur ATCC 14521 was diluted to 10^6 cells/ml in ATCC medium 1072. To the reaction tubes 5 μM of either PF-S028 L or PF-S028 D were added. […] Colony forming units were calculated for the negative control (no peptide), PF-S028 L, and PF-S028 D treated cultures.

For the next test, the system named is M. furfur. Nature of the test: MIC assay, M. furfur. The class given is cell-based, Malassezia furfur. The following applies: ATCC medium 1072, 37° C., aerobic, inoculum 10^5 CFU/ml, 18-24 h or 48 h. How it is done: as §1, §2
In a further test the test system is C. jeikeium. Nature of the test: MIC assay, C. jeikeium. The class given is cell-based, Corynebacterium jeikium. The note with it: TSB supplemented with 1% Tween-80, 37° C., aerobic, inoculum 10^6 CFU/ml, 18-24 h or 48 h. How it is done:
as §1, §2

The subject of the next test is B. subtilis. The test is classed as cell-based, Bacillus subtilis. The essentials:
as §3

On to “TKKIELKRFVDAFVKKSYENYILERELKKLIKAINEELPTK [PF-600]”, for which the MIC in the test on E. coli and with S. pneumoniae was 50 µM each time.
Regarding `CC[C@H](C)[C@H](NC(=O)[C@H](CCCCN)NC(=O)CNC(=O)[C@H](CC(N)=O)NC(=O)[C@H](CCC(N)=O)NC(=O)[C@H](Cc1ccc(O)cc1)NC(=O)[C@H](C)NC(=O)[C@H](CCCCN)NC(=O)[C@H](C)NC(=O)[C@H](Cc1ccccc1)NC(=O)[C@H](CC(=O)O)NC(=O)[C@H](CCC(N)=O)NC(=O)[C@H](Cc1c[nH]cn1)NC(=O)[C@H](CO)NC(=O)[C@H](CC(N)=O)NC(=O)[C@H](Cc1ccccc1)NC(=O)[C@H](CO)NC(=O)[C@H](CC(C)C)NC(=O)[C@H](C)NC(=O)[C@@H](NC(=O)[C@H](CC(N)=O)NC(=O)[C@@H](NC(=O)[C@H](CCCCN)NC(=O)[C@H](CCCCN)NC(=O)[C@H](CCC(=O)O)NC(=O)[C@H](CCCCN)NC(=O)[C@H](CC(=O)O)NC(=O)[C@H](CC(C)C)NC(=O)[C@H](CCC(=O)O)NC(=O)[C@H](CCCCN)NC(=O)[C@H](CO)NC(=O)[C@H](C)NC(=O)[C@H](CC(N)=O)NC(=O)[C@H](CC(C)C)NC(=O)[C@@H](NC(=O)[C@H](CCCCN)NC(=O)[C@H](CO)NC(=O)[C@H](CCC(=O)O)NC(=O)[C@@H](N)Cc1ccccc1)[C@@H](C)CC)C(C)C)[C@@H](C)O)C(=O)O` [PF-606] (H-FESKILNASKELDKEKKVNTALSFNSHQDFAKAYQNGKI-OH; N-terminus and C-terminus assumed), the minimal inhibitory concentration (MIC) against S. epidermidis, with E. coli, against S. mutans, in the test on MRSA and against S. pneumoniae was 50 µM (≈ 222 µg/mL) each time.
As to `CC[C@H](C)[C@H](NC(=O)[C@H](CCC(N)=O)NC(=O)[C@H](CCCCN)NC(=O)[C@H](CC(C)C)NC(=O)[C@H](CC(C)C)NC(=O)[C@@H]1CCCN1C(=O)[C@H](CCSC)NC(=O)[C@H](CC(C)C)NC(=O)[C@H](CO)NC(=O)[C@H](CCCCN)NC(=O)CNC(=O)[C@@H](N)CCCCN)C(=O)N[C@@H](CC(N)=O)C(=O)N[C@@H](CCC(N)=O)C(=O)N[C@@H](Cc1c[nH]c2ccccc12)C(=O)NCC(=O)N[C@@H](CCCCN)C(=O)N[C@@H](CC(C)C)C(=O)N[C@@H](Cc1ccc(O)cc1)C(=O)N[C@@H](CC(C)C)C(=O)O` [PF-C239] (H-KGKSLMPLLKQINQWGKLYL-OH; N-terminus and C-terminus assumed), the MIC in the test on P. gingivalis was determined as 50 µM (≈ 118 µg/mL); in the test on S. mutans it was 50 µM (≈ 118 µg/mL); with F. nucleatum, 50 µM (≈ 118 µg/mL); against A. naeslundii, 25 µM (≈ 59 µg/mL).
For `CC[C@H](C)[C@H](NC(=O)[C@H](C)NC(=O)[C@H](CC(N)=O)NC(=O)[C@@H](NC(=O)[C@H](CC(C)C)NC(=O)[C@H](CCCNC(=N)N)NC(=O)[C@H](Cc1ccc(O)cc1)NC(=O)[C@@H](N)CC(N)=O)C(C)C)C(=O)N[C@@H](Cc1ccccc1)C(=O)N[C@@H](CO)C(=O)N[C@@H](CCCCN)C(=O)N[C@H](C(=O)N[C@@H](Cc1ccccc1)C(=O)N[C@@H](CCCCN)C(=O)N[C@@H](CCCCN)C(=O)N[C@@H](CCCCN)C(=O)N[C@@H](Cc1ccccc1)C(=O)N[C@H](C(=O)N[C@@H](CCCCN)C(=O)N[C@@H](Cc1ccccc1)C(=O)O)[C@@H](C)CC)[C@@H](C)CC` [PF-C252] (H-NYRLVNAIFSKIFKKKFIKF-OH; N-terminus and C-terminus assumed), the MIC with P. gingivalis stood at 25 µM (≈ 62.6 µg/mL); in the test with S. epidermidis it was 25 µM (≈ 62.6 µg/mL); in the test on S. mutans, 12.5 µM (≈ 31.3 µg/mL); against P. aeruginosa it was 50 µM (≈ 125 µg/mL); with F. nucleatum it was 25 µM (≈ 62.6 µg/mL); in the test on T. rubrum it was 50 µM (≈ 125 µg/mL). Also, the values for the minimum inhibitory concentration (MIC) against MRSA, in the test on C. albicans and in the test on A. naeslundii were 50 µM (≈ 125 µg/mL), 25 µM (≈ 62.6 µg/mL) and 25 µM (≈ 62.6 µg/mL), respectively.
In turn, `CC[C@H](C)[C@H](NC(=O)[C@@H](NC(=O)[C@H](CO)NC(=O)CN)C(C)C)C(=O)N[C@@H](CCCCN)C(=O)N[C@@H](CCCCN)C(=O)N[C@@H](CCCNC(=N)N)C(=O)N[C@@H](CCCNC(=N)N)C(=O)N[C@@H](CCCCN)C(=O)N[C@@H](CCCNC(=N)N)C(=O)N[C@@H](CCSC)C(=O)N[C@@H](CO)C(=O)N[C@@H](CCCCN)C(=O)N[C@@H](CCCCN)C(=O)N[C@@H](CCCCN)C(=O)N[C@@H](Cc1c[nH]cn1)C(=O)N[C@@H](CCCNC(=N)N)C(=O)N[C@@H](CCCCN)C(=O)N[C@@H](CCSC)C(=O)N[C@@H](CC(C)C)C(=O)N[C@@H](CCCNC(=N)N)C(=O)N[C@@H](CCCNC(=N)N)C(=O)N[C@H](C(=O)N[C@@H](CCCNC(=N)N)C(=O)N[C@H](C(=O)N[C@@H](CCC(N)=O)C(=O)N[C@@H](CCCNC(=N)N)C(=O)N[C@@H](CCCNC(=N)N)C(=O)N[C@@H](CCCCN)C(=O)N[C@@H](CC(C)C)C(=O)NCC(=O)N[C@@H](CCCCN)C(=O)O)C(C)C)[C@@H](C)O` [PF-S028 L] had a M. furfur killed in the test on M. furfur ATCC 14521 of 39%.
For `CC[C@H](C)[C@H](NC(=O)[C@@H](NC(=O)[C@H](CO)NC(=O)CN)C(C)C)C(=O)N[C@@H](CCCCN)C(=O)N[C@@H](CCCCN)C(=O)N[C@@H](CCCNC(=N)N)C(=O)N[C@@H](CCCNC(=N)N)C(=O)N[C@@H](CCCCN)C(=O)N[C@@H](CCCNC(=N)N)C(=O)N[C@@H](CCSC)C(=O)N[C@@H](CO)C(=O)N[C@@H](CCCCN)C(=O)N[C@@H](CCCCN)C(=O)N[C@@H](CCCCN)C(=O)N[C@@H](Cc1c[nH]cn1)C(=O)N[C@@H](CCCNC(=N)N)C(=O)N[C@@H](CCCCN)C(=O)N[C@@H](CCSC)C(=O)N[C@@H](CC(C)C)C(=O)N[C@@H](CCCNC(=N)N)C(=O)N[C@@H](CCCNC(=N)N)C(=O)N[C@H](C(=O)N[C@@H](CCCNC(=N)N)C(=O)N[C@H](C(=O)N[C@@H](CCC(N)=O)C(=O)N[C@@H](CCCNC(=N)N)C(=O)N[C@@H](CCCNC(=N)N)C(=O)N[C@@H](CCCCN)C(=O)N[C@@H](CC(C)C)C(=O)NCC(=O)N[C@@H](CCCCN)C(=O)O)C(C)C)[C@@H](C)O` [PF-S028], the minimal inhibitory concentration (MIC) turned out to be 25 µM (≈ 101 µg/mL) with P. gingivalis (P. gingivalis, Columbia broth, 37° C., anaerobic, inoculum 10^5 CFU/ml, 18-24 h or 48 h); 25 µM (≈ 101 µg/mL) with S. epidermidis (S. epidermidis, BHI supplemented with 0.25% glucose, 37° C., aerobic, inoculum 10^5 CFU/ml, 18-24 h or 48 h); 2.5 µM (≈ 10.1 µg/mL) with M. furfur; 6.25 µM (≈ 25.2 µg/mL) in the test on C. jeikeium; 50 µM (≈ 202 µg/mL) against S. mutans (S. mutans, TH supplemented with 1% sucrose, 37° C., anaerobic, inoculum 10^5 CFU/ml, 18-24 h or 48 h); 50 µM (≈ 202 µg/mL) against P. aeruginosa (P. aeruginosa, MH, 37° C., aerobic, inoculum 10^5 CFU/ml, 18-24 h or 48 h). The MIC in the test with T. rubrum (T. rubrum, Potato Dextrose Agar, 25° C., aerobic, inoculum 10^5 CFU/ml, 18-24 h or 48 h) is 50 µM (≈ 202 µg/mL); with MRSA (MRSA, BHI supplemented with 2% glucose, 37° C., aerobic, inoculum 10^5 CFU/ml, 18-24 h or 48 h), 50 µM (≈ 202 µg/mL); against B. subtilis, 12.5 µM (≈ 50.4 µg/mL).
Turning to `CC[C@@H](C)[C@@H](NC(=O)[C@H](NC(=O)[C@@H](CO)NC(=O)CN)C(C)C)C(=O)N[C@H](CCCCN)C(=O)N[C@H](CCCCN)C(=O)N[C@H](CCCNC(=N)N)C(=O)N[C@H](CCCNC(=N)N)C(=O)N[C@H](CCCCN)C(=O)N[C@H](CCCNC(=N)N)C(=O)N[C@H](CCSC)C(=O)N[C@H](CO)C(=O)N[C@H](CCCCN)C(=O)N[C@H](CCCCN)C(=O)N[C@H](CCCCN)C(=O)N[C@H](Cc1c[nH]cn1)C(=O)N[C@H](CCCNC(=N)N)C(=O)N[C@H](CCCCN)C(=O)N[C@H](CCSC)C(=O)N[C@H](CC(C)C)C(=O)N[C@H](CCCNC(=N)N)C(=O)N[C@H](CCCNC(=N)N)C(=O)N[C@@H](C(=O)N[C@H](CCCNC(=N)N)C(=O)N[C@@H](C(=O)N[C@H](CCC(N)=O)C(=O)N[C@H](CCCNC(=N)N)C(=O)N[C@H](CCCNC(=N)N)C(=O)N[C@H](CCCCN)C(=O)N[C@H](CC(C)C)C(=O)NCC(=O)N[C@H](CCCCN)C(=O)O)C(C)C)[C@H](C)O` [PF-S028 D], the M. furfur killed result in the test with M. furfur ATCC 14521 is recorded as “over 99%”.
